Measurements: PubChem BioAssay AID192 (DTP/NCI, 2004)
Values joined by “and” are separate entries in the source; they are usually repeats but may differ in a detail not shown here. Identical values can stand only once. Inconclusive results and toxic doses are left out. The calls were made as follows: active = survival T/C of 150% or more; inactive = T/C below 125% in these data.

Tested on: BDF1 mice, B16 melanoma ip, median survival T/C
Assay: NCI In Vivo Anticancer Drug Screen. Data for tumor model B16 Melanoma (intraperitoneal) in B6D2F1 (BDF1) mice
Conditions: endpoint: median survival time, higher = longer survival
Outline: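 Antitumor activity is assessed in mice bearing a transplanted tumor, with survival or tumor size compared against vehicle-dosed controls and expressed as T/C.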

[1] = dose: 12.5 mg/kg/injection, schedule: Q01DX009 (ip), vehicle: saline with Tween-80
[2] = dose: 25.0 mg/kg/injection, schedule: Q01DX009 (ip), vehicle: saline with Tween-80
[3] = dose: 50.0 mg/kg/injection, schedule: Q01DX009 (ip), vehicle: saline with Tween-80
[4] = dose: 50.0 mg/kg/injection, schedule: Q01DX009 (ip), vehicle: saline
[5] = dose: 100.0 mg/kg/injection, schedule: Q01DX009 (ip), vehicle: saline
[6] = dose: 200.0 mg/kg/injection, schedule: Q01DX009 (ip), vehicle: saline
[7] = dose: 6.25 mg/kg/injection, schedule: Q01DX009 (ip), vehicle: saline with Tween-80
[8] = dose: 100.0 mg/kg/injection, schedule: Q01DX009 (ip), vehicle: saline with Tween-80
[9] = dose: 100.0 mg/kg/injection, schedule: Q04DX003 (ip), vehicle: saline with Tween-80
[10] = dose: 200.0 mg/kg/injection, schedule: Q04DX003 (ip), vehicle: saline with Tween-80
[11] = dose: 200.0 mg/kg/injection, schedule: Q01DX009 (ip), vehicle: saline with Tween-80
[12] = dose: 400.0 mg/kg/injection, schedule: Q01DX009 (ip), vehicle: saline with Tween-80

Measured: T/C

Cc1cnnc2ccccc12
inactive: [1] 91 % of control | [2] 98 % of control | [3] 95 % of control

CCOc1cc[n+]([O-])cc1
inactive: [4] 103 % of control | [5] 104 % of control | [6] 102 % of control

O=C(CO)c1ccc([N+](=O)[O-])cc1
inactive: dose: 3.12 mg/kg/injection, schedule: Q01DX009 (ip), vehicle: saline with Tween-80 97 % of control and 100 % of control | [7] 103 % of control | [1] 99 % of control and 106 % of control | [2] 100 % of control and 104 % of control | [3] 96 % of control and 108 % of control | [8] 93 % of control and 100 % of control

NC(C/[N+]([O-])=N/O)C(=O)O (stereo not given)
inactive: dose: 15.6 mg/kg/injection, schedule: Q01DX009 (ip), vehicle: saline 97 % of control | dose: 15.6 mg/kg/injection, schedule: Q01DX009 (ip), vehicle: water 105 % of control | dose: 15.6 mg/kg/injection, schedule: Q04DX003 (ip), vehicle: saline 100 % of control | dose: 15.6 mg/kg/injection, schedule: Q04DX003 (ip), vehicle: water 102 % of control | dose: 16.0 mg/kg/injection, schedule: Q01DX009 (ip), vehicle: saline 117 % of control | dose: 31.3 mg/kg/injection, schedule: Q01DX009 (ip), vehicle: saline 102 % of control and 105 % of control | dose: 31.3 mg/kg/injection, schedule: Q01DX009 (ip), vehicle: water 108 % of control | dose: 31.3 mg/kg/injection, schedule: Q04DX003 (ip), vehicle: saline 97 % of control | dose: 31.3 mg/kg/injection, schedule: Q04DX003 (ip), vehicle: water 97 % of control | dose: 62.5 mg/kg/injection, schedule: Q01DX009 (ip), vehicle: saline 111 % of control | dose: 62.5 mg/kg/injection, schedule: Q01DX009 (ip), vehicle: water 111 % of control | dose: 62.5 mg/kg/injection, schedule: Q04DX003 (ip), vehicle: saline 100 % of control and 95 % of control | dose: 62.5 mg/kg/injection, schedule: Q04DX003 (ip), vehicle: water 108 % of control | [9] 100 % of control | dose: 125.0 mg/kg/injection, schedule: Q04DX003 (ip), vehicle: saline 97 % of control and 111 % of control | dose: 125.0 mg/kg/injection, schedule: Q04DX003 (ip), vehicle: water 111 % of control | [10] 100 % of control | dose: 250.0 mg/kg/injection, schedule: Q04DX003 (ip), vehicle: saline 100 % of control and 109 % of control | dose: 250.0 mg/kg/injection, schedule: Q04DX003 (ip), vehicle: water 111 % of control | dose: 400.0 mg/kg/injection, schedule: Q04DX003 (ip), vehicle: saline with Tween-80 106 % of control | dose: 500.0 mg/kg/injection, schedule: Q04DX003 (ip), vehicle: saline 107 % of control | dose: 500.0 mg/kg/injection, schedule: Q04DX003 (ip), vehicle: water 97 % of control

O=c1[nH]c(=O)n(C2CC(O)C(CO)O2)cc1F (stereo not given)
active: [2] 173 % of control | [8] 183 % of control
inactive: dose: 5.0 mg/kg/injection, schedule: Q01DX009 (ip), vehicle: saline 92 % of control | [11] 86 % of control

CCC(CC)(CO)CO
inactive: dose: 25.0 mg/kg/injection, schedule: Q01DX009 (ip), vehicle: saline 92 % of control | [4] 102 % of control | [5] 104 % of control | [6] 107 % of control | dose: 400.0 mg/kg/injection, schedule: Q01DX009 (ip), vehicle: saline 97 % of control

CCN(C(=O)Nc1ccc(Cl)cc1)c1ccccc1C
inactive: [8] 97 % of control | [11] 102 % of control | [12] 97 % of control

CC1COS(=O)O1 (stereo not given)
inactive: dose: 10.0 mg/kg/injection, schedule: Q01DX009 (ip), vehicle: saline sonified 102 % of control | dose: 20.0 mg/kg/injection, schedule: Q01DX009 (ip), vehicle: saline sonified 100 % of control | dose: 40.0 mg/kg/injection, schedule: Q01DX009 (ip), vehicle: saline sonified 102 % of control

CC(=O)Nc1ccc2c(c1)Cc1cc(NC=O)ccc1-2
inactive: dose: 0.75 mg/kg/injection, schedule: Q01DX009 (ip), vehicle: Klucel (hydroxypropylcellulose) (HPC) 88 % of control | dose: 1.5 mg/kg/injection, schedule: Q01DX009 (ip), vehicle: Klucel (hydroxypropylcellulose) (HPC) 93 % of control | dose: 3.0 mg/kg/injection, schedule: Q01DX009 (ip), vehicle: Klucel (hydroxypropylcellulose) (HPC) 90 % of control

COCCNCCN1CCN(CCCN2c3ccccc3Sc3ccc(C(F)(F)F)cc32)CC1
inactive: dose: 3.75 mg/kg/injection, schedule: Q01DX009 (ip), vehicle: saline 109 % of control | dose: 7.5 mg/kg/injection, schedule: Q01DX009 (ip), vehicle: saline 107 % of control | dose: 15.0 mg/kg/injection, schedule: Q01DX009 (ip), vehicle: saline 111 % of control | dose: 30.0 mg/kg/injection, schedule: Q01DX009 (ip), vehicle: saline 88 % of control

CCC(CC)COC(=O)c1ccccc1C(=O)OCC(CC)CC
inactive: [1] 87 % of control

CCCCC[C@H](O)/C=C/[C@@H]1[C@@H](C/C=C\CCCC(=O)O)[C@@H](O)C[C@H]1O
inactive: dose: 0.25 mg/kg/injection, schedule: Q#A X020 (ip), vehicle: saline with Tween-80 109 % of control | dose: 1.0 mg/kg/injection, schedule: Q#A X020 (ip), vehicle: saline with Tween-80 100 % of control | dose: 2.0 mg/kg/injection, schedule: Q#A X020 (ip), vehicle: saline with Tween-80 110 % of control | dose: 10.0 mg/kg/injection, schedule: Q04DX002 (ip), vehicle: saline 113 % of control | dose: 20.0 mg/kg/injection, schedule: Q04DX002 (ip), vehicle: saline 95 % of control | dose: 40.0 mg/kg/injection, schedule: Q04DX002 (ip), vehicle: saline 108 % of control | dose: 80.0 mg/kg/injection, schedule: Q04DX002 (ip), vehicle: saline 108 % of control | dose: 160.0 mg/kg/injection, schedule: Q04DX002 (ip), vehicle: saline 97 % of control | dose: 320.0 mg/kg/injection, schedule: Q04DX002 (ip), vehicle: saline 97 % of control

O=C1NC(c2ccccc2)(c2ccccc2)C(=O)N1CCN(CCCl)CCCl
inactive: dose: 1.3 mg/kg/injection, schedule: Q01DX009 (ip), vehicle: Klucel (hydroxypropylcellulose) (HPC) 93 % of control | dose: 2.0 mg/kg/injection, schedule: Q01DX009 (ip), vehicle: Klucel (hydroxypropylcellulose) (HPC) 105 % of control | dose: 25.0 mg/kg/injection, schedule: Q01DX009 (ip), vehicle: Klucel (hydroxypropylcellulose) (HPC) 103 % of control
active: dose: 3.12 mg/kg/injection, schedule: Q01DX009 (ip), vehicle: Klucel (hydroxypropylcellulose) (HPC) 160 % of control | dose: 6.25 mg/kg/injection, schedule: Q01DX009 (ip), vehicle: Klucel (hydroxypropylcellulose) (HPC) 161 % of control | dose: 50.0 mg/kg/injection, schedule: Q01DX009 (ip), vehicle: Klucel (hydroxypropylcellulose) (HPC) 153 % of control

Oc1ccccc1/C=N/NC(=S)NC1CC2C=CC1C2 (stereo not given)
inactive: dose: 50.0 mg/kg/injection, schedule: Q01DX009 (ip), vehicle: olive oil, sesame oil, peanut oil 88 % of control

O=C(O)C1(Cl)CC2C=CC1C2 (stereo not given)
inactive: dose: 50.0 mg/kg/injection, schedule: Q04DX003 (ip), vehicle: saline with Tween-80 105 % of control | [9] 97 % of control | [10] 88 % of control

N#[N+]c1c(O)cc(S(=O)(=O)O)c2ccccc12
inactive: dose: 100.0 mg/kg/injection, schedule: Q04DX003 (ip), vehicle: saline 95 % of control | dose: 200.0 mg/kg/injection, schedule: Q04DX003 (ip), vehicle: saline 93 % of control | dose: 400.0 mg/kg/injection, schedule: Q04DX003 (ip), vehicle: saline 90 % of control

CC(C)OCCS(=O)(=O)Oc1ncc(Cl)cc1Cl
inactive: [9] 100 % of control | [10] 93 % of control

CS(=O)(=O)Nc1ccccc1N
inactive: dose: 1.56 mg/kg/injection, schedule: Q01DX009 (ip), vehicle: saline 95 % of control | dose: 3.12 mg/kg/injection, schedule: Q01DX009 (ip), vehicle: saline 99 % of control | dose: 6.25 mg/kg/injection, schedule: Q01DX009 (ip), vehicle: saline 98 % of control

CNC(=O)c1cccc2c(Nc3ccc(NS(C)(=O)=O)cc3OC)c3cccc(C)c3nc12
active: dose: 1.5 mg/kg/injection, schedule: Q01DX009 (ip), vehicle: water 162 % of control | dose: 3.0 mg/kg/injection, schedule: Q01DX009 (ip), vehicle: water 201 % of control

Clc1ccc(/C=C2\c3cc(Cl)ccc3-c3c(Cl)cc(Cl)cc32)cc1
inactive: [7] 90 % of control

COc1ccc(NC(=O)Nc2ccccc2OC)cc1
inactive: [8] 102 % of control | [11] 115 % of control | [12] 101 % of control
